Results as given in patent US9023821B2, “Use of MicroRNA for treating diseases associated with a dysfunction of the cilia in multiciliated epithelial cells” (Centre National de la Recherche Scientifique, priority 2009, dated 2015).

What was measured:
[1] = tested on: human airway epithelial cells (HAECs); test: High-throughput sequencing (HTS) of miRNAs at four stages of differentiation of HAECs; details: for Modulation (ratio of the level of intensity of expression in log2 in two stages of differentiation) measured by high-throughput sequencing, D7 − D0 / Modulation (ratio of the level of intensity of expression in log2 in two stages of differentiation) measured by high-throughput sequencing, FC − D7 / Modulation (ratio of the level of intensity of expression in log2 in two stages of differentiation) measured by high-throughput sequencing, WD − D0 / Modulation (ratio of the level of intensity of expression in log2 in two stages of differentiation) measured by high-throughput sequencing, WD − FC / Level of intensity of expression in log2 measured by high-throughput sequencing, D0 / Level of intensity of expression in log2 measured by high-throughput sequencing, D7 / Level of intensity of expression in log2 measured by high-throughput sequencing, FC / Level of intensity of expression in log2 measured by high-throughput sequencing, WD: Table VI; for Modulation (ratio of the level of intensity of expression in log2 in two stages of differentiation), D7 − D0 / Modulation (ratio of the level of intensity of expression in log2 in two stages of differentiation), FC − D7 / Modulation (ratio of the level of intensity of expression in log2 in two stages of differentiation), WD − FC / Abundance (%), D0 / Abundance (%), D7 / Abundance (%), FC / Abundance (%), WD: HTS; for Abundance (%), D0: ALI-D0; for Abundance (%), D7: ALI-D7; for Abundance (%), FC: ALI-FC; for Abundance (%), WD: ALI-WD; for Level of intensity of expression in log2 At the differentiated stage (WD) measured in HTS: healthy human airway epithelial tissue; for Level of intensity of expression in log2 measured by high-throughput sequencing, D0: stage D0; for Level of intensity of expression in log2 measured by high-throughput sequencing, D7: stage D7; for Level of intensity of expression in log2 measured by high-throughput sequencing, FC: stage FC; for Level of intensity of expression in log2 At the differentiated stage (WD) measured in HTS / Level of intensity of expression in log2 measured by high-throughput sequencing, WD: stage WD
Summary of the method: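 Total RNA including small RNAs was taken from air-liquid interface cultures at ALI-D0, ALI-D7, ALI-FC (first cilia, ~14 days) and ALI-WD (~21 days). SOLiD small-RNA libraries were sequenced, and 5p/3p reads were normalized to 10^6 sequences and expressed as percentage abundance.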

[2] = tested on: basal cells and pyramidal cells of the airway epithelium; test: miRNA expression in sorted basal cells versus pyramidal cells (ciliated + secretory), HTS and Agilent chips; set-up: species or system human; details: for Modulation of expression of the miRNAs in pyramidal cells (323(−)) relative to basal cells 323(+): HTS and Agilent chips; for Intensity of the level of expression in log2 in pyramidal cells (323(−)): pyramidal cells (ciliated + secretory)
Summary of the method: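 miRNA repertoires measured by high-throughput sequencing or Agilent arrays on total RNA from sorted airway epithelial populations of 3 donors. Sorting used CD151-PE and anti-tissue factor-FITC: double-positive basal versus double-negative ciliated/secretory cells, with DAPI-stained and aggregated cells excluded.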

[3] = tested on: human airway epithelial cells (HAECs); test: Agilent miRNA chips, miRNA expression at four stages of differentiation of HAECs; details: for Modulation (ratio of the level of intensity of expression in log2 in two stages of differentiation) measured with the Agilent chips, D7 − D0 / Modulation (ratio of the level of intensity of expression in log2 in two stages of differentiation) measured with the Agilent chips, FC − D7 / Modulation (ratio of the level of intensity of expression in log2 in two stages of differentiation) measured with the Agilent chips, WD − D0 / Modulation (ratio of the level of intensity of expression in log2 in two stages of differentiation) measured with the Agilent chips, WD − FC / Level of intensity of expression in log2 measured with the Agilent chips, D0 / Level of intensity of expression in log2 measured with the Agilent chips, D7 / Level of intensity of expression in log2 measured with the Agilent chips, FC / Level of intensity of expression in log2 measured with the Agilent chips, WD: Table VI; for Modulation (ratio of the level of intensity of expression in log2 at two stages of differentiation), FC − D7 / Modulation (ratio of the level of intensity of expression in log2 at two stages of differentiation), WD − FC: Agilent miRNA chips, Table V; for Level of intensity of expression in log2 measured with the Agilent chips, D0: stage D0; for Level of intensity of expression in log2 measured with the Agilent chips, D7: stage D7; for Level of intensity of expression in log2 measured with the Agilent chips, FC: stage FC; for Level of intensity of expression in log2 measured with the Agilent chips, WD: stage WD
Summary of the method: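 Expression read from hybridization signals on Human miRNA Microarray v2 arrays spanning all miRBase v.12.0 human miRNAs plus 89 viral ones. Samples are RNA from the same patients profiled by sequencing, labelled with the standard kit.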

Substance	Modulation (ratio of the level of intensity of expression in log2 in two stages of differentiation) measured by high-throughput sequencing, D7 − D0 [1] [log2]	Modulation (ratio of the level of intensity of expression in log2 in two stages of differentiation) measured by high-throughput sequencing, FC − D7 [1] [log2]	Modulation (ratio of the level of intensity of expression in log2 in two stages of differentiation), D7 − D0 [1] [log2]	Modulation (ratio of the level of intensity of expression in log2 in two stages of differentiation), FC − D7 [1] [log2]	Modulation (ratio of the level of intensity of expression in log2 in two stages of differentiation), WD − FC [1] [log2]	Abundance (%), D0 [1] [%]	Abundance (%), D7 [1] [%]	Abundance (%), FC [1] [%]	Abundance (%), WD [1] [%]	Modulation (ratio of the level of intensity of expression in log2 in two stages of differentiation) measured by high-throughput sequencing, WD − D0 [1] [log2]	Modulation (ratio of the level of intensity of expression in log2 in two stages of differentiation) measured by high-throughput sequencing, WD − FC [1] [log2]	Level of intensity of expression in log2 At the differentiated stage (WD) measured in HTS [1] [log2]	Level of intensity of expression in log2 measured by high-throughput sequencing, D0 [1] [log2]	Level of intensity of expression in log2 measured by high-throughput sequencing, D7 [1] [log2]	Level of intensity of expression in log2 measured by high-throughput sequencing, FC [1] [log2]	Level of intensity of expression in log2 measured by high-throughput sequencing, WD [1] [log2]	Modulation of expression of the miRNAs in pyramidal cells (323(−)) relative to basal cells 323(+) [2]	Intensity of the level of expression in log2 in basal cells (323(+)) [2] [log2]	Intensity of the level of expression in log2 in pyramidal cells (323(−)) [2] [log2]	Modulation (ratio of the level of intensity of expression in log2 in two stages of differentiation) measured with the Agilent chips, D7 − D0 [3] [log2]	also measured
hsa-miR-125a-5p: human miRNA, SEQ ID No. 3 (UCCCUGAGACCCUUUAACCUGUGA; expressed or natural sequence; listed as Homo sapiens)	0.64	−0.27	0.64	−0.27	0.79	1.69	2.64	2.13	2.79	1.16	0.79	14.08	12.92	13.55	13.29	14.08	−0.05	6.63	6.58	1.29	Modulation (ratio of the level of intensity of expression in log2 at two stages of differentiation), FC − D7 [3]: −0.46 log2; Modulation (ratio of the level of intensity of expression in log2 in two stages of differentiation) measured with the Agilent chips, FC − D7 [3]: −0.46 log2; Modulation (ratio of the level of intensity of expression in log2 in two stages of differentiation) measured with the Agilent chips, WD − D0 [3]: 0.79 log2; Modulation (ratio of the level of intensity of expression in log2 at two stages of differentiation), WD − FC [3]: −0.04 log2; Modulation (ratio of the level of intensity of expression in log2 in two stages of differentiation) measured with the Agilent chips, WD − FC [3]: −0.04 log2; Level of intensity of expression in log2 measured with the Agilent chips, D0 [3]: 7.37 log2; Level of intensity of expression in log2 measured with the Agilent chips, D7 [3]: 8.66 log2; Level of intensity of expression in log2 measured with the Agilent chips, FC [3]: 8.20 log2; Level of intensity of expression in log2 measured with the Agilent chips, WD [3]: 8.15 log2
hsa-miR-130a: human miRNA, SEQ ID No. 4 (CAGUGCAAUGUUAAAAGGGCAU; expressed or natural sequence; listed as Homo sapiens)	−1.40	0.19	−1.40	0.19	−0.73	3.38	1.28	1.42	0.65	−1.94	−0.73	11.98	13.91	12.51	12.71	11.98	−6.33	9.76	3.43	0.65	cell type in which the miRNA is specifically expressed ([2]; sorted ciliated/pyramidal versus basal cells): more specific to the basal cells; Modulation (ratio of the level of intensity of expression in log2 at two stages of differentiation), FC − D7 [3]: −1.53 log2; Modulation (ratio of the level of intensity of expression in log2 in two stages of differentiation) measured with the Agilent chips, FC − D7 [3]: −1.53 log2; Modulation (ratio of the level of intensity of expression in log2 in two stages of differentiation) measured with the Agilent chips, WD − D0 [3]: −1.31 log2; Modulation (ratio of the level of intensity of expression in log2 at two stages of differentiation), WD − FC [3]: −0.43 log2; Modulation (ratio of the level of intensity of expression in log2 in two stages of differentiation) measured with the Agilent chips, WD − FC [3]: −0.43 log2; Level of intensity of expression in log2 measured with the Agilent chips, D0 [3]: 8.83 log2; Level of intensity of expression in log2 measured with the Agilent chips, D7 [3]: 9.48 log2; Level of intensity of expression in log2 measured with the Agilent chips, FC [3]: 7.95 log2; Level of intensity of expression in log2 measured with the Agilent chips, WD [3]: 7.52 log2
